These results are taken from US6239284A, “Aromatic tetracyclic compounds of the retinoid type method for preparing and use” (priority 1997, dated 2001).

Molecules are shown by their SMILES.

Assay [1] has as its system RAR. The assay is described as follows: GAL-RAR model, specificity profile (transient transfection of HeLa cells).
Description: (§8) Studies of the transactivational specificity of the retinoids have been carried out by transitory transfection of HeLa cells. Two types of chimerical receptors can then be expressed by the cells. […] The C region (domain of bonding to the DNA) and the A and B regions (AF-1 activation domain) are suppressed.
(§9) These chimerical receptors activated by an agonist specifically stimulate the transcription of the gene of the luciferase present in a co-transfected plasmid ((17M)5-βG-Luc) where 17M is the response element of Gal4.
The next assay concerns T-47D cells. The assay is described as follows: Anti-proliferation effect, estrogen-induced growth of T-47D cells. The class given is cell-based, human. The method, then: (§1) So as to test the anti-proliferation effect of the retinoids, growth experiments under oestrogenic conditions were carried out on cells MCF-7 and T-47D. These are the human estrogen-dependent mammary cancer cells which express the receptor to RE estrogens. The effect of the molecules is evaluated after 7 days of culture in oestrogenic conditions (estradiol 10^-9 M) by dosing the cellular DNA. The cells are distributed in 24 well plates at a density of 2×10^4 cells per well. The tests with the different retinoids are carried out in triplicate and the culture medium is changed after 4 days of growth.
(§2) The effect of the retinoids on the growth of MCF-7 and T-47D cells is evaluated after 7 days of culture in the presence of 10^-9 M estradiol by dosing the cellular DNA.

For assay [2], the system named is RARβ. Briefly: Transactivation of chimerical receptor RARβ-ERcassette, transient transfection of HeLa cells. Format: cell-based. The source says: (§3) The HeLa cells are co-transfected by a plasmid which codes for a retinoic receptor in which the C domain of bonding to the DNA is substituted by that of the receptor to RE estrogens, and a plasmid which places the expression of the luciferase under the control of an ERE (Element of Response to Estrogens). The expressed chimerical receptors are designated as RARα-ERcassette, RARβ-ERcassette, RARγ-ERcassette and RXRα-ERcassette. The A, B, D, E and F regions of the natural receptor are preserved as well as the transcriptional co-operation between the activation domains AF-1 and AF-2. These transitory transfection experiments follow the method of co-precipitation to calcium phosphate. The HeLa cells are co-transfected by […] of plasmid coding for the chimerical receptor, […] of reporter plasmid and […] of expression vector CMV-β-galactosidase used as an internal control of transfection. 24 hours after the transfection, the cells are incubated for 16 hours with the different effectors.
(§4) In this type of chimerical receptor, the C domain of bonding to the DNA of RAR is substituted by that of the receptor to the RE estrogens. The protein obtained is close to the natural RAR receptor and preserves the transcriptional properties of the AF-1 and AF-2 domains. It modulates the transcription by means of an ERE. This RAR-ERcassette model allows one to observe a transcriptional response to a more physiological ligand.
(§5) The study of the selectivity of the compounds was carried out with the RAR-ERcassette chimerical receptors model.
(§6) On one and the same line in the Table, the cis (Z) compound represents the isomeric structure of the trans (E) compound.

The subject of the next assay is AP-1. Briefly: Anti-AP-1 effect, MTLN cellular lineage (MCF-7 with (TRE)3-tk-Luc) activated by TPA. The class given is cell-based, human. Particulars: for Anti-AP-1 effect, Inhibition (%): 10^-7 M TPA, range of several experiments. The method, then: The anti-factor AP-1 transrepressor effect of retinoids is determined using the MTLN lineage, coming from MCF-7 cells transfected in a stable fashion by a vector p(TRE)3 -tk-Luc which places the expression of the gene of luciferase under the control of […]. TPA activates the AP-1 complex formed from proteins of the family of nuclear proto-oncogenes (c-Jun and c-Fos). […] The experiments ware made with the MTLN cells activated by 10^-7 M TPA.
The effect of the compounds on the MTLN cells activated by 10^-7 M TPA is expressed as a percentage. […] The inhibitive properties of the products are calculated after deduction of the base activity of the cells. The percentages reported correspond to a range of inhibitions determined from several experiments.

In assay [3] the test system is RARβ. Briefly: Transactivation of chimerical receptor GAL4-RARβ, transient transfection of HeLa cells (luciferase).
Description: as §8, §9
Another assay deals with MCF-7 cells. The assay is described as follows: Anti-proliferation effect, estrogen-induced growth of MCF-7 cells. The class given is cell-based, human. The method, then: as §1, §2
For assay [4], the system named is RARE. Briefly: HRL+N transactivation (stably transfected HeLa, RARE reporter, endogenic receptors). The class given is cell-based. The source says:
(§7) The cellular lineages HRLN and HRL+N allow one to study the activation of an RARE by endogenic receptors using ligands at physiological concentrations. These lineages derive from HeLa cells transfected in a stable fashion by a reporter gene which places the expression of the gene of the luciferase under the control of a nuclear response element RARE (RARE3 -tk-Luc). The HeLa cells express all the known receptors of the retinoic acid (RARα,β,γ and RXRα,β,γ) with a predominance of RARα and RXRα. The response element RARE used for the HRLN cells corresponds to the sequence of the natural gene of the RARβ receptor (GGTTCAnnnnnAGTTCA). The HRL+N cells comprise the sequence GAGTGAnnnnnCGGTGA.
The HRL+N lineage allows one to visualize a co-activation of the RAR and RXR receptors at the level of the RAR-RXR hetero-dimer.

The next assay relates to RARγ. Briefly: Transactivation of chimerical receptor GAL4-RARγ, transient transfection of HeLa cells (luciferase).
For assay [5], the system named is RARE. The assay is described as follows: HRLN transactivation (stably transfected HeLa, RARE3-tk-Luc, endogenic receptors). Format: cell-based. Particulars: for Emax: read-out: HRLN transactivation E max %.
Description: as §7

Assay [6] deals with RARα. Briefly: Transactivation of chimerical receptor GAL4-RARα, transient transfection of HeLa cells (luciferase).
Description: as §8, §9
Assay [7] concerns ERE. Briefly: Anti-estrogenic effect, MELN cellular lineage (MCF-7 with ERE-βGlob-Luc) activated by estradiol. The class given is cell-based, human. The method, then:
MCF-7 cells express RARα,γ and RXRα. The transfection of MCF-7 cells by an estrogen-dependent gene (ERE-βGlob-Luc) has permitted the establishment of the MELN cellular lineage, used to determine the anti-oestrogenic activity of the retinoids. These cells contain the gene of the luciferase under the transcriptional control of the promoter of the βGlobine and of the response element ERE isolated from the gene of chicken vitelogenine A2. The experiments are carried out with MELN cells activated by 10^-9 M estradiol. The level of base activity of the MELN cells is obtained with the anti-estrogen 1 μM 4-OH-tamoxifen (hydroxytamoxifen).
The effect of the products tested on the cells activated by 10^-9 M estradiol is expressed as a percentage, the level of base activity being deducted.

In assay [8] the test system is RARα. Briefly: Transactivation of chimerical receptor RARα-ERcassette, transient transfection of HeLa cells. The class given is cell-based. Particulars: -9 log M; 100% = TTNPB 10^-8 M.
Description: as §3, §4, §5, §6

For assay [9], the system named is ERE. Particulars: cited from earlier work.
Assay [10] relates to RAR. Briefly: RAR-ERcassette model, specificity profile (transient transfection of HeLa cells). The class given is cell-based.
Description: as §3, §4, §5

[11] abbreviates: Homo sapiens, read-out: Anti-oestrogenic effect, Inhibition (%).

Description for RARγ: as §8, §9

Turning to `C=C(c1ccc(C(=O)O)cc1)c1cc2c(cc1C)C(C)(C)CCC2(C)C` [LGD1069], the “GAL-RAR agonist profile in words” value in the assay on RAR [1] is “do not allow one to observe a good transactivation mediated by RAR”. Also, the “Effect on growth of T-47D cells in words” value with T-47D cells (estrogenic conditions) is listed as “no effect whatsoever on the growth”. For the same molecule, the “RARβ transactivation (RAR-ERcassette) in words” value in the assay on RARβ [2] is reported as “transcriptional power appears higher notably through the RARβ-ERcassette”. In addition, the “Anti-AP-1 effect (MTLN) in words” value with AP-1 is on record as “most effective compound tested in this model”. Further, the “GAL4-RARβ activity, % of activity measured for 10^-8 M TTNPB” value (from here on “GAL4-RARβ activity, % of activity”) in the assay with RARβ [3] (Concentration -7 (log M)) is reported as 5%; in the assay on RARβ [3] (Concentration -8 (log M)) it was 1%. For the same molecule, the “Effect on growth of MCF-7 cells in words” value in the assay with MCF-7 cells (estrogenic conditions) was “no effect whatsoever on the growth”. For the same molecule, the “HRL+N transactivation in words” value with RARE [4] was “more effective than the RAR specific molecules”. In addition, the “GAL4-RARγ activity, % of activity measured for 10^-8 M TTNPB” value in the assay with RARγ (Concentration -6 (log M)) worked out at 29%; with RARγ (Concentration -7 (log M)), 8%; in the assay on RARγ (Concentration -8 (log M)) it was 1%.
With `Cc1cc2c(cc1C(=O)c1ccc(C(=O)O)cc1)C(C)(C)CCC2(C)C` [LGD-CB14499], the “GAL-RAR agonist profile in words” value in the assay on RAR [1] is “do not allow one to observe a good transactivation mediated by RAR”. Besides, the Emax in the assay with RARE [5] (Homo sapiens, HeLa) was found to be 30%. Further, in the assay with RARβ [2], the “RARβ transactivation (RAR-ERcassette) in words” value is reported as “transcriptional power appears higher notably through the RARβ-ERcassette”. Besides, the “Anti-AP-1 effect (MTLN) in words” value in the assay with AP-1 was “causes an inhibition of the AP-1 route”. In addition, the “Anti-AP-1 effect, Inhibition (%)” value in the assay on AP-1 (-7 log M) is reported as 17-30%. In addition, the “GAL4-RARβ activity, % of activity” value in the assay on RARβ [3] (Concentration -6 (log M)) was determined as 9%; with RARβ [3] (Concentration -7 (log M)) it was 1%; in the assay with RARβ [3] (Concentration -8 (log M)) it was 0%. Besides, the “GAL4-RARα activity, % of activity measured for 10^-8 M TTNPB” value amounted to 17% in the assay on RARα [6] (Concentration -6 (log M)), 4% in the assay on RARα [6] (Concentration -7 (log M)) and 1% in the assay with RARα [6] (Concentration -8 (log M)). Besides, the “Anti-estrogenic effect (MELN) in words” value in the assay with ERE [7] was “inactive”. Further, the inhibition at 0.1 µM with ERE [7] (setting [11]) is 0%. Further, the inhibition at 1 µM in the assay with ERE [7] (setting [11]) was 0%. Besides, the Emax at 1 µM in the assay on RARE [4] (Homo sapiens, HeLa) is 94%. The figures for the “GAL4-RARγ activity, % of activity measured for 10^-8 M TTNPB” value with RARγ (Concentration -6 (log M)), in the assay on RARγ (Concentration -7 (log M)) and in the assay on RARγ (Concentration -8 (log M)) were 13%, 0% and 0%, respectively.
Consider `CC1=C(/C=C/C(C)=C/C=C/C(C)=C/C(=O)O)C(C)(C)CCC1` [ttRA, all trans retinoic acid], for which, in the assay with RAR [1], the “GAL-RAR agonist profile in words” value was “good RAR agonists”. The “HRLN transactivation in words” value in the assay on RARE [5] is given as “dose-dependent activation”. In addition, the concentration for a half-maximal effect (EC50) in the assay with RARE [5] (Homo sapiens, HeLa, concentrations from 1 nM to 1 μM, read-out: HRLN transactivation EC50) was determined as 2.5 ± 4 nM. In the assay on RARE [5] (Homo sapiens, HeLa), the Emax was found to be 208%. In addition, in the assay on RARα [8], the “RAR-ERcassette RARα transactivation (%)” value was 65%. The half-inhibitory concentration (IC50) in the assay on T-47D cells (Homo sapiens, T47D, 168 h, read-out: T-47D IC50 (growth inhibition by 50%)) amounted to 39.1 nM; in the assay with MCF-7 cells (Homo sapiens, MCF7, 168 h, read-out: MCF-7 IC50 (growth inhibition by 50%)), 14.1 ± 10.3 nM. For the same molecule, the figures for the “Anti-AP-1 effect, Inhibition (%)” value with AP-1 (-7 log M) and with AP-1 (-8 log M) were 28-44% and 22-33%, respectively. For the same molecule, the figures for the “GAL4-RARβ activity, % of activity” value in the assay on RARβ [3] (Concentration -6 (log M)), in the assay with RARβ [3] (Concentration -7 (log M)) and in the assay with RARβ [3] (Concentration -8 (log M)) were 92%, 93% and 104%, respectively. Besides, the “Effect on cellular growth and expression of estrogen-dependent genes” value in the assay with ERE [9] is “reduces the cellular growth and the expression of estrogen-dependent genes”. For the same molecule, the “GAL4-RARα activity, % of activity measured for 10^-8 M TTNPB” value is reported as 108% with RARα [6] (Concentration -6 (log M)), 102% with RARα [6] (Concentration -7 (log M)) and 82% in the assay on RARα [6] (Concentration -8 (log M)). Moreover, the inhibition at 0.1 µM with ERE [7] (setting [11]) came out at 35%. Moreover, the “RAR-ERcassette profile in words” value in the assay with RAR [10] is on record as “induce an over-expression of luciferase in comparison to the induction brought about by a synthetic compound (TTNPB)”.
